Results published in patent US11020494B2, “Animal models for nonalcoholic fatty liver disease” (CROWN BIOSCIENCE INC. (TAICANG), priority 2017, dated 2021).

How the values were obtained:
FATZO mice [1] = details: for serum glucose concentrations in the fed state: after 8 weeks, vehicle 315.6±35.4; for serum glucose concentrations in the fed state / body weight change over the 8-week observation period: rosiglitazone 10 mg/kg/day, metformin 150 mg/kg/day; for body weight change over the 8-week observation period: oral once daily 8 weeks, vehicle 1.8±0.2
Procedure: Male FATZO mice (9 weeks of age, n=40) were maintained on Purina 5008 regular rodent chow and reverse osmosis water ad libitum. Mice were housed 3 per cage and acclimated to study environment for 7 days prior to study. At 10 weeks of age, mice were fasted for 6 hours, body weight was recorded and an OGTT performed. Glucose and insulin were assayed at 0, 30, 60, 90, 120 and 180 minutes following a 2 g/kg glucose load. Glucose concentrations were obtained from StatStrip glucometer and insulin was assayed at each time-point using the insulin kit mentioned above. Insulin sensitivity index (ISI) was calculated using a formula modified from Matsuda and DeFronzo [39] by changing the numerator to 10,000 and using glucose and insulin AUCs instead of average glucose and insulin levels ([…]/square root of [fasting glucose x fasting insulin]×[glucose AUC×insulin AUC during OGTT]).
Animals were randomized into 3 groups of 10 based on baseline ISI and body weight. […] Compounds were administered orally once daily by gavage for 8 weeks. Body weight was recorded weekly.
Following 8 weeks of treatment, OGTT was repeated one hour after compound administration. Whole blood was taken from tail clip and processed to serum. Treatment effects on glucose disposal, fed serum glucose, HbAlc, and ISI were compared to vehicle.

FATZO mice [2] = experiment: Effect of leptin on food intake in FATZO mice; type: in vivo, mouse; details: leptin 10 mg/kg, first 4 hours of darkness
Procedure: Two age groups of male FATZO mice were selected for leptin levels and the effect of leptin on food intake. Additional age matched groups of C57BL/6 were bled for leptin levels. Animals were acclimated to reverse light cycle for 7 days before being put on protocol. […] Serum was prepared from tail blood and leptin levels were analyzed (Meso Scale Discovery, K152BYC, Rockville, Md., USA). After blood collection, animals were given saline or leptin injections (10 mg/kg) and food intake data was recorded for the first 4 hours of darkness.

[3] = after 8 weeks of administration, compared to vehicle

Compound	AUC for glucose during OGTT (FATZO mice [1]; [3])	calculated insulin sensitivity index (ISI) (FATZO mice [1]; [3])	insulin AUC during OGTT (FATZO mice [1]; [3])	serum glucose concentrations in the fed state (FATZO mice [1])	body weight change over the 8-week observation period (FATZO mice [1])	food intake after leptin injection (FATZO mice [2]; FATZO at 10 weeks of age)	food consumption after leptin injection (FATZO mice [2]; young FATZO animals (5 weeks))
CN(C)C(=N)N=C(N)N [metformin]	significant reductions	significant improvements	significant improvements	250.0 ± 12.8 mg/dL	-0.2 ± 0.6 g		
CN(CCOc1ccc(CC2SC(=O)NC2=O)cc1)c1ccccn1 (stereo not drawn) [rosiglitazone]				233.3 ± 7.7 mg/dL	5.3 ± 0.7 g		
leptin						no significant reduction	significantly reduced
